Values quoted from earlier work, collected in patent publication US5674533A, “Pharmaceutical composition for the controlled release of moguisteine in a liquid suspension” (Recordati, S.A., Chemical And Pharmaceutical Company, priority 1994, dated 1997).

Assays:
[1] = in vivo
[2] = for antitussive activity of enantiomers: R(+) vs S(-)
[3] = tested on: rapidly adapting irritant receptors (RARs); conditions: peripheral site of action
[4] = in humans
[5] = not given; remark: listed apart in the source

Which addiction [1] does the source give for `COc1ccc2c3c1O[C@H]1[C@@H](O)C=C[C@H]4[C@@H](C2)N(C)CC[C@@]341` [Codeine] here?
Its addiction is “potentially causing addiction”.

Which “antitussive activity of enantiomers” value [2] does the source give for `CCOC(=O)CC(=O)N1CCSC1COc1ccccc1OC` (single isomer, unassigned) [S(-) enantiomer] here?
Its value is “equivalent antitussive activity”.

What does the source list for `CCOC(=O)CC(=O)N1CCSC1COc1ccccc1OC` (racemic) [moguisteine, (R,S)-2-[(2-methoxyphenoxy)methyl-3-ethoxycarbonyl-1-acetyl]-1,3-thiazolidine]?
interaction with RARs [3]: interacts with the so-called "rapidly adapting irritant receptors" (RARs); addiction [1]: causes no addiction; tolerability in high doses relative to codeine or dextromethorphan [1]: better tolerated in high doses than codeine or dextromethorphan; antitussive potency relative to codeine, dextromethorphan and zipripol ([2]; in vivo): as potent as codeine, dextromethorphan and zipripol; antitussive potency relative to (D,L)-dropropizine ([2]; vs (D,L)-dropropizine): 3-4 times more potent; half-life after administration [4]: less than one hour; solubility in aqueous fluids: relatively insoluble in aqueous fluids; action via opioid receptors (opioid receptors): does not act via opioid receptors

Which “antitussive activity of enantiomers” value [2] does the source give for `CCOC(=O)CC(=O)N1CCSC1COc1ccccc1OC` (single isomer, unassigned) [R(+) enantiomer] here?
Its value is “equivalent antitussive activity”.

Which “presence in biological fluids in measurable quantities” value ([5]; after oral or intravenous administration of moguisteine) does the source give for `COc1ccccc1OCC1SCCN1C(=O)CC(=O)O` (racemic) [active metabolite, (R,S)-2-[(methoxyphenoxy)methyl]-3-carboxyacetyl]-1,3 thiazolidine acid] here?
The value was “only its active metabolite”.

What about the “rate of absorption relative to moguisteine” value ([5]; oral) of the same compound?
The value was “five times slower than moguisteine”.
